{
  "source": "patent US9995734B2",
  "about": "“Human T cell line assay for evaluating the immunologic identity of glatiramer acetate preparations” (Mylan Inc., priority 2013, dated 2018)",
  "key": {"[1]": {"system": "Donor 1 GMA Expanded T-Cell Lines (222-AG11, 222-AG12, 222-BA11, 222-BC11)", "test": "ATP proliferation assay (CellTiter Glo), Donor 1 GMA expanded T-cell lines, incl. reactivity to non-canonical GA peptides", "format": "cell-based, human", "conditions": "T-cell line 222-AG12, autologous B-LCL", "protocol": "(§1) Proliferation was evaluated by measuring ATP content using a luminescent method (CellTiter Glo Luminescent Cell Viability Assay, Promega, Madison, Wis., cat. #G7571) or by measuring BrdU uptake by ELISA (Millipore cat. #2752), in both cases following kit instructions. A split well format was used. Cells in each well were resuspended and 65 μl transferred to the wells of each of two new U-bottom 96-well plates, to generate the replicate plates. For the initial screening, the original 96-well plate received mitomycin-treated autologous PBMC as APC plus 10 μg/mL antigen (GA). A first replicate plate received 100 μl., mitomycin-treated PBMC alone (2×10^5), and no antigen, and a second replicate plate received 100 μL mitomycin-treated PBMC plus GA at a final concentration of 10 μg/mL. Therefore, all three plates received autologous APC (PBMC) treated with mitomycin C to prevent cell division. […] The latter two plates were incubated for 3 days at 37° C., 6% CO2 before adding CellTiter Glo or BrdU and measuring signal. IL-2 was added at 10 U/mL to the original 96-well plate for expansion on Day 17. For subsequent screenings, mitomycin-treated EBV-transformed autologous B-LCL (2×10^5 to 5×10^5 cells/mL) were used as APC.\nOn Day 24, cells from the wells corresponding to the eight presumptive GA-specific human T-cell lines listed in Table 4 were transferred to a 24-well plate and expanded by stimulating with 10 μg/mL GMA and mitomycin-treated autologous PBMC as APC (3×10^6 per well, i.e., 1.5×10^6/mL). On Day 32 four of the eight lines, 222-BA11, 222-BC11, 222-AG11, and 222-AG12, were stimulated with 0, 1, 10 and 100 μg/mL GMA and tested in a 96-well plate for a proliferative response to GMA using an ATP assay, again using autologous PBMC as APC (2×10^5 per well, i.e., 1×10^6/mL). […] FIGS. 2A and B show the results of the ATP proliferation assay carried out using 222-AG12, 222-BC11, 222-AG11, and 222-BA11 at Day 35 (control=no antigen). FIGS. 3A-C compare the results of ATP proliferation assays carried out after stimulation with varying concentrations of GMA or Copaxone as indicated, using cell lines 222-BA11, 222-BC11, and 222-AG12.\nDonor 1 GMA T-cell line 222-AG12 was assayed for proliferation following stimulation with 0, 1, 10, and 30 μg/mL each of peptides GLT 631, GAT 631, GAT 111, LT 11, GT 11, GL 14, COP, and GMA, at a T-cell concentration of 2×10^5 cells/mL, in the presence of mitomycin C-treated autologous B-LCL. Line 222-AG12 was assayed after 3 rounds of restimulation (4 total stimulations). Proliferation was measured by luminescent ATP assay."}, "Donor 1 COP T-Cell Lines": {"system": "Donor 1 COP T-Cell Lines", "test": "ATP proliferation assay (CellTiter Glo), Donor 1 COP T-cell lines, incl. reactivity to non-canonical GA peptides", "format": "cell-based, human", "conditions": "for ATP Proliferation Assay, Mean: Day 56, second assay; for luminescent ATP proliferation assay, mean: no antigen 5673 (Table 9); for Proliferation (luminescent ATP assay), Mean: Day 56 of culturing", "protocol": "as §1\nCOP-responsive T-cell lines were obtained from Donor 1. In the initial stimulation, isolated PBMC were plated at 1×10^5 cells per well (5×10^5 cells/mL) with 10 μg/mL Copaxone and cultured as described above. IL-2 was added to all wells on Days 4 and 7 of culture, and the wells screened for reactivity on Day 14 using a luminescent proliferation assay in split well format. The original plate was restimulated, and IL-2 added 4 days after restimulation.\n(§2) T-cell line 222-2D8, generated from Donor 1 by initial stimulation with COP, was shown in at least two experiments to proliferate comparably following restimulation with GMA and COP. […] ATP levels were measured at 48 hours after stimulation. The control in the GMA series was no antigen, and the control in the COP series was MBP. The response to GMA in comparison to COP at the 10 μg/mL dose in this assay was 103.4%.\nIn a second ATP proliferation assay, carried out on Day 56 or culturing following stimulation with 1, 3, or 10 μg/mL of GMA or COP, the response to GMA in comparison to COP at the 10 μg/mL dose was 107.1%.\nas §2, with “line 222-2F1,” for “line 222-2D8,”, “Donor 222” for “Donor 1”, “was 85.1%.” for “was 103.4%.”\nOn Day 56 of culturing, after six total rounds of stimulation, cell line 222-2F12 was assayed for proliferation in response to stimulation with GA and a series of non-canonical peptides. For the assay, 0, 3, 10, or 30 μg/mL of each of peptides GL 14, GLT 631, GAT 111, and GAT 631, COP, and GMA, were added to the T-cell lines at 1×10^5 cells/mL, in the presence of mitomycin C-treated autologous B-LCL. Proliferation was measured by luminescent ATP assay. Cell line 222-2F12 responded to GL 14 at 3 μg/mL, and not to the other non-canonical GA peptides tested. The response to GMA in comparison to COP at the 10 μg/mL dose in this assay was 99.4%.\nThe cultures were restimulated on days 46, 56, 67 and 75. On Day 56, cell lines 222-2D8, 222-1H12, 222-2F12, 222-2B8, 222-105, 222-2B11, and 222-2E1 again were tested for reactivity to stimulation with 1, 3, or 10 μg/mL of GMA or COP in a proliferation assay. ATP levels were measured in all seven cell lines at 48 hours (results in FIGS. 5A-G) after stimulation. The control in the GMA series was no antigen, and the control in the COP series was MBP. […]"}},
  "data": [
    {"substance": "glatiramer acetate [COP]", "values": [
      {"measurement": "Proliferation (luminescent ATP assay), Mean", "setting": "[1]; 1 ug/mL antigen", "value": 10056, "unit": "RLU"},
      {"measurement": "Proliferation (luminescent ATP assay), Mean", "setting": "[1]; 10 ug/mL antigen", "value": 233083, "unit": "RLU"},
      {"measurement": "Proliferation (luminescent ATP assay), Mean", "setting": "[1]; 30 ug/mL antigen", "value": 227055, "unit": "RLU"},
      {"measurement": "ATP proliferation assay", "setting": "Donor 1 COP T-Cell Lines; 222-1C5, 10 μg/mL, Day 14, control 7087", "value": 14906, "unit": "RLU"},
      {"measurement": "ATP proliferation assay", "setting": "Donor 1 COP T-Cell Lines; 222-1F8, 10 μg/mL, Day 14, control 2308", "value": 6519, "unit": "RLU"},
      {"measurement": "ATP proliferation assay", "setting": "Donor 1 COP T-Cell Lines; 222-1G8, 10 μg/mL, Day 14, control 4030", "value": 8308, "unit": "RLU"},
      {"measurement": "ATP proliferation assay", "setting": "Donor 1 COP T-Cell Lines; 222-1H12, 10 μg/mL, Day 14, control 8141", "value": 23836, "unit": "RLU"},
      {"measurement": "ATP proliferation assay", "setting": "Donor 1 COP T-Cell Lines; 222-2B8, 10 μg/mL, Day 14, control 5543", "value": 13600, "unit": "RLU"},
      {"measurement": "ATP proliferation assay", "setting": "Donor 1 COP T-Cell Lines; 222-2B11, 10 μg/mL, Day 14, control 6340", "value": 16460, "unit": "RLU"},
      {"measurement": "ATP proliferation assay", "setting": "Donor 1 COP T-Cell Lines; 222-2C1, 10 μg/mL, Day 14, control 8350", "value": 20166, "unit": "RLU"},
      {"measurement": "ATP proliferation assay", "setting": "Donor 1 COP T-Cell Lines; 222-2C3, 10 μg/mL, Day 14, control 6839", "value": 14045, "unit": "RLU"},
      {"measurement": "ATP proliferation assay", "setting": "Donor 1 COP T-Cell Lines; 222-2C5, 10 μg/mL, Day 14, control 4695", "value": 9577, "unit": "RLU"},
      {"measurement": "ATP proliferation assay", "setting": "Donor 1 COP T-Cell Lines; 222-2D2, 10 μg/mL, Day 14, control 7135", "value": 16271, "unit": "RLU"},
      {"measurement": "ATP proliferation assay", "setting": "Donor 1 COP T-Cell Lines; 222-2D8, 10 μg/mL, Day 14, control 13024", "value": 26495, "unit": "RLU"},
      {"measurement": "ATP Proliferation Assay, Mean", "setting": "Donor 1 COP T-Cell Lines; 222-2D8, 1 μg/mL (Table 7)", "value": 7229},
      {"measurement": "ATP Proliferation Assay, Mean", "setting": "Donor 1 COP T-Cell Lines; 222-2D8, 3 μg/mL (Table 7)", "value": 134127},
      {"measurement": "ATP Proliferation Assay, Mean", "setting": "Donor 1 COP T-Cell Lines; 222-2D8, 10 μg/mL (Table 7)", "value": 146092},
      {"measurement": "ATP proliferation assay", "setting": "Donor 1 COP T-Cell Lines; 222-2D8, Day 56, 48 hours after stimulation, 1 μg/mL (Table 6)", "value": 4888},
      {"measurement": "ATP proliferation assay", "setting": "Donor 1 COP T-Cell Lines; 222-2D8, Day 56, 48 hours after stimulation, 3 μg/mL (Table 6)", "value": 6392},
      {"measurement": "ATP proliferation assay", "setting": "Donor 1 COP T-Cell Lines; 222-2D8, Day 56, 48 hours after stimulation, 10 μg/mL (Table 6)", "value": 12161},
      {"measurement": "ATP proliferation assay", "setting": "Donor 1 COP T-Cell Lines; 222-2E1, 10 μg/mL, Day 14, control 8035", "value": 17064, "unit": "RLU"},
      {"measurement": "ATP proliferation assay", "setting": "Donor 1 COP T-Cell Lines; 222-2F12, 10 μg/mL, Day 14, control 9703", "value": 28022, "unit": "RLU"},
      {"measurement": "luminescent ATP proliferation assay, mean", "setting": "Donor 1 COP T-Cell Lines; 222-2F12, Day 56, 3 μg/mL", "value": 233087},
      {"measurement": "luminescent ATP proliferation assay, mean", "setting": "Donor 1 COP T-Cell Lines; 222-2F12, Day 56, 10 μg/mL", "value": 230009},
      {"measurement": "luminescent ATP proliferation assay, mean", "setting": "Donor 1 COP T-Cell Lines; 222-2F12, Day 56, 30 μg/mL", "value": 118769},
      {"measurement": "ATP proliferation assay", "setting": "Donor 1 COP T-Cell Lines; 222-2F12, Day 56, 48 hours after stimulation, 1 μg/mL (Table 8)", "value": 5281},
      {"measurement": "ATP proliferation assay", "setting": "Donor 1 COP T-Cell Lines; 222-2F12, Day 56, 48 hours after stimulation, 3 μg/mL (Table 8)", "value": 8684},
      {"measurement": "ATP proliferation assay", "setting": "Donor 1 COP T-Cell Lines; 222-2F12, Day 56, 48 hours after stimulation, 10 μg/mL (Table 8)", "value": 11747},
      {"measurement": "ATP proliferation assay", "setting": "Donor 1 COP T-Cell Lines; 222-2G4, 10 μg/mL, Day 14, control 2566", "value": 6812, "unit": "RLU"},
      {"measurement": "ATP proliferation assay", "setting": "Donor 1 COP T-Cell Lines; 222-2G12, 10 μg/mL, Day 14, control 3913", "value": 9899, "unit": "RLU"},
      {"measurement": "Proliferation (luminescent ATP assay), Mean", "setting": "Donor 1 COP T-Cell Lines; T-cell line 222-1H12, 3 μg/mL antigen, 0 μg/mL 5974", "value": 146874, "unit": "RLU"},
      {"measurement": "Proliferation (luminescent ATP assay), Mean", "setting": "Donor 1 COP T-Cell Lines; T-cell line 222-1H12, 10 μg/mL antigen, 0 μg/mL 5974", "value": 168163, "unit": "RLU"},
      {"measurement": "Proliferation (luminescent ATP assay), Mean", "setting": "Donor 1 COP T-Cell Lines; T-cell line 222-1H12, 30 μg/mL antigen, 0 μg/mL 5974", "value": 68492, "unit": "RLU"},
      {"measurement": "Proliferation (luminescent ATP assay), Mean", "setting": "Donor 1 COP T-Cell Lines; T-cell line 222-2F12, 3 μg/mL antigen, 0 μg/mL 5673", "value": 233087},
      {"measurement": "Proliferation (luminescent ATP assay), Mean", "setting": "Donor 1 COP T-Cell Lines; T-cell line 222-2F12, 10 μg/mL antigen, 0 μg/mL 5673", "value": 230009},
      {"measurement": "Proliferation (luminescent ATP assay), Mean", "setting": "Donor 1 COP T-Cell Lines; T-cell line 222-2F12, 30 μg/mL antigen, 0 μg/mL 5673", "value": 118769},
      {"measurement": "ATP proliferation signal relative to control", "setting": "Donor 1 COP T-Cell Lines; fifteen Donor 1 COP T-cell lines of Table 5, 10 μg/mL", "value": "at least twice the signal as control"}
    ]}
  ]
}
